Experimental data published in article PMC6105804, “In Vitro and In Vivo Evaluation of APX001A/APX001 and Other Gwt1 Inhibitors against Cryptococcus” (Antimicrobial Agents and Chemotherapy, 2018).
In brackets after ≈: the same amount, converted by molar mass. Where two headings read alike, the source gives them in different places.

How the values were obtained:
[1] = system: C. gattii; assay: Broth microdilution susceptibility testing (CLSI M27-A3); format: cell-based; details: Cryptococcus gattii
Description: (§1) C. neoformans strains H99, DUMC 118.00, and DUMC 158.03 and C. gattii strains R272 and RSA-MW-3515 were obtained from Duke University. C. albicans 90028, A. fumigatus MYA3626, C. neoformans 14116, C. neoformans 76484, and the pathogenic Cryptococcus reference strains panel (ATCC MP-11) were obtained from the American Type Culture Collection (ATCC; Manassas, VA, USA). The ATCC MP-11 panel consists of strains representing eight molecular types and three subtypes of C. neoformans and C. gattii.
(§2) To establish the antimicrobial activity of the APX001A analogs, broth microdilution susceptibility testing was performed according to Clinical and Laboratory Standards Institute (CLSI) guidelines M27-A3 ([47]) for yeasts and M38-A2 for molds ([48]). APX001A and analogs were first diluted in DMSO to obtain intermediate dilutions. These were further diluted in microtiter plates to obtain a final concentration of 2 to 0.002 μg/ml. One microliter of DMSO was added to the no-drug control wells. The solutions were mixed on a plate shaker for 10 min, and the plates were incubated at 35°C for 40 to 48 h (C. albicans, A. fumigatus) and 72 h (C. neoformans). The minimum concentration that led to a 50% reduction in fungal growth compared to that for the control (determined with the aid of a reading mirror) was determined as the MIC for C. albicans and C. neoformans. The minimum concentration that led to the shortening of hyphae compared to the hyphal growth in DMSO control wells was determined as the minimum effective concentration (MEC) for A. fumigatus (as read for the echinocandins). The use of the MIC and MEC endpoints for APX001A (formerly E1210) against yeasts and molds, respectively, has been described previously ([19][–][21]). For the cryptococcal synergy studies, APX001A and APX2020 MIC values were read at 50% inhibition.

[2] = system: FLC-susceptible and FLC-nonsusceptible/resistant strains of C. neoformans and C. gattii; assay: Broth microdilution, summary over the 18-strain Cryptococcus collection; format: cell-based, Cryptococcus neoformans and Cryptococcus gattii; details: 18 strains of C. neoformans and C. gattii
Protocol: as §2, with “The minimum concentration that led to the shortening of hyphae compared to the hyphal growth in DMSO control wells was determined as the minimum effective concentration (MEC) for A. fumigatus (as read for the echinocandins).” left out

[3] = system: C. neoformans strain H99; assay: Delayed-treatment model of cryptococcal meningitis; format: in vivo, Cryptococcus neoformans; details: treatment from 24 h after infection, QD 7 days; APX2096 60 mg/kg i.p. + ABT, AMB 3 mg/kg i.p.
Protocol: As in the previous mouse model, 100-mg/kg ABT (p.o.) was administered 2 h prior to each APX2096 dose (n = 5 mice/cohort). Infection was initiated on day 1, and treatment was initiated 24 h later (day 2) rather than 1 h later. Treatments were administered for 7 days (the final dose was administered on day 8), and mice were sacrificed on day 9 for CFU enumeration.
Male CD-1 mice were infected with 5.4 × 10^4 CFU per mouse via lateral tail vein injection. […] A dose of 100-mg/kg ABT was administered orally 2 h prior to each APX2096 dose. Mice were sacrificed 24 h after the last dose, and the brain and left lung were homogenized and cultured for quantitative determination of the tissue burden (number of CFU per gram of tissue). Fungal burden data were log10 transformed and evaluated using Kruskal-Wallis tests with Dunn's multiple-comparison test for post hoc analysis (Prism software, v5; GraphPad Software, Inc., San Diego, CA). A P value of ≤0.05 was considered statistically significant (*, P ≤ 0.05; **, P ≤ 0.01). The 95% confidence interval (CI) is presented.
Fungal burden data were log10 transformed and evaluated using Kruskal-Wallis tests with Dunn's multiple-comparison test for post hoc analysis (Prism software, v5; GraphPad Software, Inc., San Diego, CA). A P value of ≤0.05 was considered statistically significant.

[4] = system: C. neoformans; assay: Broth microdilution susceptibility testing (CLSI M27-A3); format: cell-based, Cryptococcus neoformans; details: Cryptococcus neoformans
Description: as §1, §2

[5] = system: A. fumigatus MYA3626; assay: Broth microdilution susceptibility testing for molds (CLSI M38-A2); format: cell-based; details: Aspergillus fumigatus, MYA3626; read-out: MIC or MEC for A. fumigatus MYA3626
Description: as §1, §2

[6] = system: C. neoformans; parameters: method as in PMID 15078612; details: U.S. isolates; cited from earlier work
[7] = system: C. albicans 90028; assay: Broth microdilution susceptibility testing (CLSI M27-A3); format: cell-based, Candida albicans; details: Candida albicans, 90028; read-out: MIC, C. albicans 90028
Description: as §1, §2

[8] = system: C. neoformans strain H99; assay: Murine cryptococcal meningitis model with ABT pretreatment (preliminary experiment); format: in vivo, Cryptococcus neoformans; details: 7 days
Protocol: In a preliminary experiment, the efficacies of APX001, APX2096, and APX2097 were evaluated in the disseminated model of CM (n = 5 mice/cohort). ABT at 100 mg/kg was administered orally to male CD-1 mice 2 h prior to APX compound administration. Mice were injected with 6.9 × 10^4 CFU of C. neoformans strain H99 per mouse via the lateral tail vein at time zero. Treatment with each prodrug was initiated at about 1 h postinfection by i.p. administration and continued daily for 7 days, with 100-mg/kg ABT being administered orally 2 h prior to each APX compound dose.
(§3) ABT at 100 mg/kg was administered orally to male CD-1 mice at 2 h prior to each APX compound dose. Mice were injected with 6.9 × 10^4 CFU of C. neoformans strain H99 per mouse via the lateral tail vein at time zero. Treatment with the APX compound was initiated at about 1 h postinfection by i.p. administration and continued for 7 days, with 100-mg/kg ABT being administered orally 2 h prior to each APX compound dose. […] Fungal burden data were log10 transformed and evaluated using Kruskal-Wallis tests with Dunn's multiple-comparison test for post hoc analysis (Prism software, v5; GraphPad Software, Inc., San Diego, CA). A P value of ≤0.05 was considered statistically significant (*, P ≤ 0.05; **, P ≤ 0.01). The 95% confidence interval (CI) is presented.
(§4) C. neoformans strain H99 was grown in yeast extract-peptone-dextrose broth at 30°C on a shaker (220 rpm) for 24 h, centrifuged (1,980 relative centrifugal force), and washed twice in phosphate-buffered saline (PBS), resuspended in PBS, and quantified by hemacytometric count. Male CD-1 mice were infected with ∼5 × 10^4 CFU per mouse via lateral tail vein injection of 100 μl. Mice were weighed, and treatment was begun within 1 h after infection. Treatments were administered daily for 7 days. Mice were weighed daily and observed for acute and chronic adverse symptoms. Mice were sacrificed on day 8, and the brain and left lung were homogenized and cultured for quantitative determination of the tissue burden (number of CFU per gram of tissue). Tissues were homogenized for 25 s in 1 ml phosphate-buffered saline using two 6.5-mm steel beads and a Mini-Beadbeater 16 apparatus (Biospec Products, Inc., Bartlesville, OK) and serially diluted in 10-fold steps. Aliquots (100 μl) of homogenate were plated and incubated for 3 to 7 days at 37°C. Fungal burden data were log10 transformed and evaluated using Kruskal-Wallis tests with Dunn's multiple-comparison test for post hoc analysis (Prism software, v5; GraphPad Software, Inc., San Diego, CA). A P value of ≤0.05 was considered statistically significant.

[9] = system: C. neoformans strain H99; assay: Murine cryptococcal meningitis model with ABT, dose-response study; format: in vivo, Cryptococcus neoformans
Protocol: A dose-response study was performed with APX2096 and APX2097 to confirm the observed activity. In this study, QD doses of 7.5, 20, and 60 mg/kg were evaluated in conjunction with the administration of ABT. A 60-mg/kg dose QD without ABT was also evaluated as a control.
FIG 3 Dose-response of APX2096 and APX2097 in a murine model of cryptococcal meningitis in conjunction with ABT administration. ABT at 100 mg/kg was administered orally to male CD-1 mice at 2 h prior to each APX compound dose. Mice were injected with 4.8 × 10^4 CFU C. neoformans strain H99 per mouse via the lateral tail vein at time zero. Treatment with the APX compounds was initiated at 1 h postinfection by i.p. administration and continued for 7 days, with 100-mg/kg ABT being administered orally 2 h prior to each APX compound dose. The correction factors for prodrug potencies versus the potencies of the active moieties were similar enough such that the same factor (1.3) was used for all APX compounds. Fungal burden data were log10 transformed and evaluated using Kruskal-Wallis tests with Dunn's multiple-comparison test for post hoc analysis (Prism software, v5; GraphPad Software, Inc., San Diego, CA). […] A P value of ≤0.05 was considered statistically significant (*, P ≤ 0.05; **, P ≤ 0.01; ***, P ≤ 0.001). The 95% confidence interval (CI) is presented.
as §4

[10] = Acute toxicity and survival observed in the CM model with ABT; format: in vivo, mouse; details: i.p. dosing + ABT; dose then reduced to 60 mg/kg for surviving mice
Protocol: as §3, §4

[11] = 34 mg/kg QD i.p. + ABT 100 mg/kg p.o.
[12] = 85 mg/kg QD i.p. + ABT 100 mg/kg p.o.
[13] = QD doses of 7.5, 20 and 60 mg/kg i.p. + ABT
[14] = QD doses of 7.5, 20 and 60 mg/kg i.p. + ABT, not significant

Compound: C[C@@H]1[C@H](O)[C@@H](C)/C=C/C=C/C=C/C=C/C=C/C=C/C=C/[C@H](O[C@@H]2O[C@H](C)[C@@H](O)[C@H](N)[C@@H]2O)C[C@@H]2O[C@](O)(C[C@@H](O)C[C@@H](O)[C@H](O)CC[C@@H](O)C[C@@H](O)CC(=O)O[C@H]1C)C[C@H](O)[C@H]2C(=O)O [AMB, amphotericin B, reference compound]
- MIC ([1]; C. gattii isolate MYA-4093, read-out: MIC): 0.25 µg/mL
- MIC ([1]; C. gattii isolate MYA-4094, read-out: MIC): 0.25 µg/mL
- MIC ([1]; C. gattii isolate MYA-4560 (first listing, r17), read-out: MIC): 0.063 µg/mL
- MIC ([1]; C. gattii isolate MYA-4560 (second listing, r21), read-out: MIC): 0.063 µg/mL
- MIC ([1]; C. gattii isolate MYA-4561, read-out: MIC): 0.25 µg/mL
- MIC ([1]; C. gattii isolate MYA-4562, read-out: MIC): 0.25 µg/mL
- MIC ([1]; C. gattii isolate MYA-4563, read-out: MIC): 0.125 µg/mL
- MIC ([1]; C. gattii isolate MYA-4877, read-out: MIC): 0.25 µg/mL
- MIC ([1]; C. gattii isolate RSA-MW-3615 (FLC resistant), read-out: MIC): 0.25 µg/mL
- MIC ([1]; Table 1, 50% growth inhibition for FLC, caspofungin and APX compounds, 100% for AMB, read-out: MIC, C. gattii WM276): 0.25 µg/mL
- MIC90 [2]: 0.25 µg/mL
- MIC ([2]; read-out: Geometric mean MIC): 0.215 µg/mL
- reduction of the lung tissue fungal burden vs untreated control [3]: 4.02 log10 CFU/g
- MIC ([4]; 72 h, Table 1, 50% growth inhibition for FLC, caspofungin and APX compounds, 100% for AMB, 72 h, read-out: MIC, C. neoformans H99): 0.25 µg/mL
- MIC ([4]; C. neoformans isolate 14116, read-out: MIC): 0.25 µg/mL
- MIC ([4]; C. neoformans isolate 76484, read-out: MIC): 0.25 µg/mL
- MIC ([4]; C. neoformans isolate DUMC 118.00 (FLC resistant), read-out: MIC): 0.25 µg/mL
- MIC ([4]; C. neoformans isolate DUMC 158.03 (FLC resistant), read-out: MIC): 1 µg/mL
- MIC ([4]; C. neoformans isolate MYA-4564, read-out: MIC): 0.25 µg/mL
- MIC ([4]; C. neoformans isolate MYA-4565, read-out: MIC): 0.125 µg/mL
- MIC ([4]; C. neoformans isolate MYA-4566, read-out: MIC): 0.25 µg/mL
- MIC ([4]; C. neoformans isolate MYA-4567, read-out: MIC): 0.25 µg/mL
- MIC ([4]; Table 2, C. neoformans isolate H99, read-out: MIC): 0.25 µg/mL
- MIC [5]: 1 µg/mL
- MIC90 [6]: 2 µg/mL (≈ 2.16 µM)
- MIC [7]: 1 µg/mL

Compound: Nc1c(-c2cc(Cc3ccc(OCc4ccccc4)cc3)no2)ccc[n+]1COP(=O)([O-])O [APX2097]
- reduction in brain fungal burden [8, 11]: 1.66 log10 CFU/g
- reduction in lung fungal burden [8, 11]: 1.07 log10 CFU/g
- reduction in brain fungal burden [8, 12]: 2.72 log10 CFU/g
- reduction in lung fungal burden [8, 12]: 3.28 log10 CFU/g
- reduction in brain fungal burden ([9]; 60 mg/kg QD i.p. + ABT): 1.45 log10 CFU/g
- reduction in lung fungal burden ([9]; 60 mg/kg QD i.p. + ABT): 1.55 log10 CFU/g
- dose-dependent change in brain fungal burden: increase end of range [9, 13]: 0.24 log10 CFU/g
- dose-dependent change in lung fungal burden: increase end of range [9, 13]: 1.20 log10 CFU/g
- dose-dependent change in brain fungal burden: reduction end of range [9, 14]: 1.45 log10 CFU/g
- dose-dependent change in lung fungal burden: reduction end of range [9, 14]: 1.55 log10 CFU/g
- Acute toxicity observed (day of treatment) [10]: day 6
